US20050095281A1, “Liposomal formulations and methods of use” (OPTIME Therapeutics, Inc., priority 2003, published 2005)

What was measured:
[1] = system: Lactobacillus; conditions: previously shown; cited from earlier work
[2] = system: human cervical epithelium; assay: Histological evaluation of excised human cervical tissue ex vivo (Franz diffusion cell); conditions: 2% polysorbate 80 (data not shown)

| Molecule | toxicity of preservatives to Lactobacillus [1] | histological changes in human cervical epithelium [2] |
| --- | --- | --- |
| COC(=O)c1ccc(O)cc1 [methylparaben] | nontoxic | – |
| CCCOC(=O)c1ccc(O)cc1 [propylparaben] | nontoxic | – |
| polysorbate 80 | – | Severe shedding of the epithelial layers |
